Source: patent publication US9720005B2, “Immunoassay for compounds of the NBOMe family” (Randox Laboratories Limited, priority 2014, dated 2017)
Values after ≈ are worked out from the molar mass of the structure shown. Counter-ions that a name gives are not always drawn.

Tests used:
[1] = system: Antibody (RS2708); assay: Competitive ELISA for NBOMe based compounds (Example 13), HRP tracer vs calibrator/cross-reactant; type: binding, sheep; details: for % Cross-reactivity: IC50 25I-NBOMe.HCL/IC50 CR×100; for % CR: relative to 25I-NBOMe.HCl
Description: IgG was extracted from the antisera using ammonium sulphate/caprylic acid precipitation and the purified antibody was immobilised on a 96 well ELISA plate at 5 μg/ml in 10 mM TRIS buffer, pH 8.5 overnight at 4° C. […] The plate was washed (×3) with TBST and the calibrator (25I-NBOMe.HCL) or potential cross reactants added (50 μl per well), followed by HRP tracer (75 μl/well) to the appropriate wells. The plates were then incubated for 60 minutes at 25° C. […] 125 μL of signal (TMB) was then added to each well for 20 mins at room temperature in the dark. The reaction was stopped by the addition of 125 μl of 0.2 M Sulphuric Acid per well and the plates read immediately at 450 nm. Calibration curves were generated and these were used to determine the sensitivity and specificity of the immunoassay for 25I-NBOMe-HCL and potential cross-reactants. The data are inputted to a computer program called ‘KC Junior’ (Biotek). It gives a 4 parameter fit curve and allows the calculation of concentrations between the standard runs. This program is used to calculate the IC50 values by dividing the 0 ng/ml optical density (OD) value by 2 and obtaining the concentration value from the curve for this OD. The results of this study are presented in Tables 1-3, cross-reactivity being calculated according to the following formula: % CR=IC50 25I-NBOMe.HCL/IC50 CR×100
Wherein % CR is the percentage cross-reactivity, IC50 25I-NBOMe HCL is the concentration of 25I-NBOMe-HCL which causes 50% displacement of signal and IC50 CR is the concentration of potential cross-reactant that causes 50% displacement of signal.

[2] = recreational drug use; cited from earlier work
[3] = case study of 25I-NBOMe use; cited from earlier work
[4] = Table 2, antibody coated at 5 μg/ml, HRP tracer at 1/64K

Compound | % Cross-reactivity ([1]; Table 2) | IC50 [1, 4] | other results
COc1cc(CCNCc2ccccc2O)c(OC)cc1N [25(NH2)-NBOH] | 18.5% | 0.887 ng/mL (≈ 2.93 nM) | 
COc1cc(CCNCc2ccccc2OC)c(OC)cc1Br [25B-NBOMe•HCl, 2-(4-Bromo-2,5-dimethoxyphenyl)-N-[(2-methoxyphenyl)methyl]ethanamine] | 118.8% | 0.138 ng/mL | 
COc1cc(CCNCc2ccccc2OC)c(OC)cc1C [25D-NBOMe•HCl, 2-(2,5-Dimethoxy-4-methylphenyl)-N-[(2-methoxyphenyl)methyl]ethanamine] | 157.7% | 0.104 ng/mL | 
CCc1cc(OC)c(CCNCc2ccccc2OC)cc1OC [25E-NBOMe•HCl] | 126.2% | 0.13 ng/mL | 
COc1ccc(OC)c(CCNCc2ccccc2OC)c1 [25H-NBOMe•HCl, 2-(2,5-dimethoxyphenyl)-N-(2-methoxybenzyl)ethanamine] | 170.8% | 0.096 ng/mL | 
COc1cc(CCNCc2ccccc2OC)c(OC)cc1I [25I-NBOMe•HCl, 2-(4-Iodo-2,5-dimethoxyphenyl)-N-[(2-methoxyphenyl)methyl] ethanamine] | 100% | 0.164 ng/mL | B/Bo ([1]; Conc. 0.03125 ng/ml, 0 ng/ml = 100.0): 90.2; B/Bo ([1]; Conc. 0.0625 ng/ml, 0 ng/ml = 100.0): 80.2; B/Bo ([1]; Conc. 0.125 ng/ml, 0 ng/ml = 100.0): 61.3; B/Bo ([1]; Conc. 0.25 ng/ml, 0 ng/ml = 100.0): 33.4; B/Bo ([1]; Conc. 0.5 ng/ml, 0 ng/ml = 100.0): 14.7; B/Bo ([1]; Conc. 1 ng/ml, 0 ng/ml = 100.0): 7.6; B/Bo ([1]; Conc. 2 ng/ml, 0 ng/ml = 100.0): 5.3; IC50 ([1]; Table 1, antibody coated at 5 μg/ml, HRP tracer at 1/64K): 0.164 ng/mL
COc1cc([N+](=O)[O-])c(OC)cc1CCNCc1ccccc1OC [25N-NBOMe•HCl, N-(2-Methoxybenzyl)-2-(2,5-dimethoxy-4-nitrophenyl)ethylamine] | 115.5% | 0.142 ng/mL | 
CCCc1cc(OC)c(CCNCc2ccccc2OC)cc1OC [25P-NBOMe•HCl] | 111.6% | 0.147 ng/mL | 
CCSc1cc(OC)c(CCNCc2ccccc2OC)cc1OC.Cl [25T2-NBOMe•HCl] | 120.6% | 0.136 ng/mL | 
COc1cc(SC(C)C)c(OC)cc1CCNCc1ccccc1OC [25T4-NBOMe•HCl] | 118% | 0.139 ng/mL | 
CCCSc1cc(OC)c(CCNCc2ccccc2OC)cc1OC [25T7-NBOMe•HCl] | 118% | 0.139 ng/mL | 
COc1cc(CCN)c(OC)cc1Br [Compound 2C-B] |  |  | B/Bo ([1]; Table 4, samples @ 100 ng/ml): 89.9; IC50 ([1]; Table 4, samples @ 100 ng/ml): >100; % CR ([1]; Table 4, samples @ 100 ng/ml): <0.16%
CCc1cc(OC)c(CCN)cc1OC [Compound 2C-E] |  |  | B/Bo ([1]; Table 4, samples @ 100 ng/ml): 92.2; IC50 ([1]; Table 4, samples @ 100 ng/ml): >100; % CR ([1]; Table 4, samples @ 100 ng/ml): <0.16%
COc1cc(CCN)c(OC)cc1I [Compound 2C-I] |  |  | B/Bo ([1]; Table 4, samples @ 100 ng/ml): 88.8; IC50 ([1]; Table 4, samples @ 100 ng/ml): >100; % CR ([1]; Table 4, samples @ 100 ng/ml): <0.16%; dose [2]: around 20 milligrams
COc1cc(CCNCc2ccccc2OC)c(OC)cc1I [Compound 25I-NBOMe, 2-(4-Iodo-2,5-dimethoxyphenyl)-N-[(2-methoxyphenyl)methyl] ethanamine] |  |  | dose [2]: less than one milligram; Clinical features [3]: tachycardia, hypertension, agitation, aggression, visual and auditory hallucinations, seizures, hyperplexia, clonus, elevated white cell count, elevated creatine kinase, metabolic acidosis and acute kidney injury
COc1cc([N+](=O)[O-])c(OC)cc1CCNCc1ccccc1O [Compound 25N-NBOH] | 26.7% | 0.615 ng/mL (≈ 1.85 nM) | 
COc1cc(CC(C)N)c(OC)cc1Br (stereo not shown) [DOB, 2,5-Dimethoxy-4-bromoamphetamine] |  |  | B/Bo ([1]; Table 4, samples @ 100 ng/ml): 91.8; IC50 ([1]; Table 4, samples @ 100 ng/ml): >100; % CR ([1]; Table 4, samples @ 100 ng/ml): <0.16%
COc1ccccc1CNCCc1cc(OC)c(OC)c(OC)c1.Cl [Mescaline-NBOMe•HCl] | 164% | 0.1 ng/mL | 
